Consider 32 compounds from article PMC11281344 (Viruses, 2024).

Like-named read-outs stand apart in the source and are kept apart here.

Series [1] relates to FMDV serotype A [A/TAI/NP05/2017 (NP05)]. In words: microbe, parasite or virus in culture. The series is classed as cell-based, Foot-and-mouth disease virus. The settings on record: for EC50: read-out: Antiviral Activity (EC50) CPE (Crystal Violet).
Series [2] concerns the target FMDV 3D^pol (Foot-and-mouth disease virus serotype O, UniProt P03305). In words: cell-based. Type of series: cell-based.
In series [3] the test system is FMDV serotype A [A/TAI/NP05/2017 (NP05)]. Nature of the series: microbe, parasite or virus in culture. Type of series: cell-based, Foot-and-mouth disease virus.
Series [4] shares this test system. In words: microbe, parasite or virus in culture. The series is classed as cell-based, Foot-and-mouth disease virus. The settings on record: for EC50: read-out: Antiviral Activity (EC50) Viral Copy Number (RT-qPCR). Background: In qPCR the cycle at which signal appears reflects the starting amount.
Series [5] is described as follows: in vitro. Particulars: hamster.
Series [6] relates to BHK-21 cells.
The test system of series [7] is ZIKV. Particulars: read-out: IC50 against ZIKV; cited from earlier work.
In series [8] the test system is HSV-1. Particulars: cited from earlier work.
Series [9] concerns human herpes simplex virus-2 (HSV-2). Particulars: cited from earlier work.
The mark [10] stands for this setting: Foot-and-mouth disease virus, BHK-21, 24 h.
[11] abbreviates: Foot-and-mouth disease virus, BHK-21, read-out: Antiviral Activity (EC50) FMDV-Infected Cells (IPMA).
The mark [12] stands for this setting: read-out: Antiviral Activity (EC50) FMDV-Infected Cells (IPMA).

FMDV 3D^pol, sequence (P03305 1863-2332 limits assumed): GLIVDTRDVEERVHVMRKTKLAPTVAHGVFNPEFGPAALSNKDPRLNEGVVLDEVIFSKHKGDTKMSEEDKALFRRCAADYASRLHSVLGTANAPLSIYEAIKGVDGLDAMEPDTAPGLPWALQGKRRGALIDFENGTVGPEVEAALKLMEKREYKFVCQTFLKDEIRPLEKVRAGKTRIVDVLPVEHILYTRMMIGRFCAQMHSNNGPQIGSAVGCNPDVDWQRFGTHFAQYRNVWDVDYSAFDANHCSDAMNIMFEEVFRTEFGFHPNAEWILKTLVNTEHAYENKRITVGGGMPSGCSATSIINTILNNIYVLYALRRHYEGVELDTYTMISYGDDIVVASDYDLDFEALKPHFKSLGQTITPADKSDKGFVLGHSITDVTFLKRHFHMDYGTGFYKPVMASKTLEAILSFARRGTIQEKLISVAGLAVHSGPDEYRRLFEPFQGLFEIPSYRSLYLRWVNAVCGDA

What is called EC50 is the concentration that produces a half-maximal response. A word on the IC50: it is the concentration that gives 50% inhibition. Take `CC1=C[C@H](O)[C@@H](O)[C@]2(C)[C@H]3[C@@H](O)[C@H](O)[C@@]4(C)OC[C@@]35[C@@H](C[C@@H]12)OC(=O)[C@H](O)[C@]54O` [Bruceine E]: the “Antiviral activity against FMDV infection (result in words)” value (“Antiviral activity … (result in words)” for short) in series [1] is on record as “exhibited antiviral activities”. The values for the EC50 in series [1] (setting [10]), in series [3] (setting [11]) and in [4] (setting [10]) were 18.1 ± 1.26 µM, 12.9 ± 1.11 µM and 33.4 ± 1.52 µM, respectively. Moreover, in series [2], the IC50 amounted to 26.7 ± 1.43 µM. Also, in [2], the “Inhibition of FMDV 3Dpol (result in words)” value is on record as “moderate inhibition”. In addition, the “Inhibition of viral load (result in words)” value (“Inhibition of viral load” for short) in [4] is reported as “moderate potency”. Moreover, in series [5], the CC50 was 49.6 ± 1.7 µM.

For `C[C@@H]1C(=O)O[C@H]2C[C@@]34[C@H]5C[C@@H](C(C)(C)C)[C@]36[C@@H](OC(=O)[C@@H]6O)O[C@@]4(C(=O)O5)[C@]21O` [Ginkgolide A], the CC50 in series [5] was 314.2 ± 2.5 µM.

`C[C@H](CC(=O)C[C@@H](C)[C@H]1C[C@H](O)[C@@]2(C)C3=C(C(=O)C[C@]12C)[C@@]1(C)CCC(=O)C(C)(C)[C@@H]1C[C@@H]3O)C(=O)O` [Ganoderic acid A]: in [5], the CC50 was more than 500 µM.

In [6], `CC(=O)O[C@H]1[C@H]2[C@@H](OC(=O)Cc3ccccc3)[C@@H](C)C[C@]2(OC(C)=O)C(=O)/C(C)=C/[C@@H]2[C@H](CC[C@@]13CO3)C2(C)C` [Euphorbiasteroid] came in with a CC50 of more than 500 µM.

In the case of `CC1(C)O[C@H]2CC(=O)OC[C@]23[C@H]2CC[C@@]4(C)[C@H](c5ccoc5)OC(=O)[C@H]5O[C@]54[C@]2(C)C(=O)C[C@@H]13` [Limonin], the CC50 in series [5] was determined as 116 ± 2.07 µM.

Take `C[C@@H]1C[C@@H]([C@@H](O)C(C)(C)O)O[C@H]2C[C@@]3(C)C(=C12)C[C@H](O)[C@H]1[C@@]2(C)CCC(=O)C(C)(C)[C@@H]2CC[C@@]13C` [Alisol F]: the CC50 in series [6] was 85.2 ± 1.93 µM.

Take `CC1(C)CCC2(C(=O)O)CCC3(CO)C(=CCC4C5(C)CC(O)C(OC6OC(CO)C(O)C(O)C6O)C(C)(C(=O)O)C5CCC43C)C2C1` (centres unmarked) [Tenuifolin]: in [5], the CC50 turned out to be 54.9 ± 1.74 µM.

As to `CC1=CC(=O)[C@@H](O)[C@]2(C)[C@H]3[C@@H](O)[C@H](O)[C@@]4(C)OC[C@@]35[C@@H](C[C@@H]12)OC(=O)[C@H](O)[C@]54O` [Bruceine D], in [1], the “Antiviral activity … (result in words)” value was “exhibited antiviral activities” and the EC50 worked out at 0.25 ± 0.6 µM. For the same compound, the IC50 in [7] is 0.36 µM. The EC50 in [3] (setting [12]) was determined as 0.32 ± 0.49 µM. Besides, in series [4], the “Concentration range of complete inhibition of FMDV” value is 1 to 2.5 µM and the EC50 amounted to 0.42 ± 0.38 µM.

With `C=C(C(=O)O)[C@H]1CC[C@H](C)[C@@H]2CC(=O)C(C)=C2C1` [Rupestonic acid], the CC50 in series [6] was 72.3 ± 1.86 µM.

For the compound `CC1(C)O[C@H]2CC(=O)OC[C@]23[C@H]2CC[C@@]4(C)[C@H](c5ccoc5)OC(=O)[C@H]5O[C@]54[C@]2(C)[C@@H](O)C(=O)[C@@H]13` [Rutaevin], the CC50 in series [5] stood at 472 ± 2.67 µM.

As to `CCC(C)(C)C(=O)O[C@H]1C[C@@H](C)C=C2C=C[C@H](C)[C@H](CC[C@@H]3C[C@@H](O)CC(=O)O3)[C@H]21` [Simvastatin, reference compound], the CC50 in [5] is 294.4 ± 2.47 µM.

In [6], `C=C1CC[C@H]2[C@@H](/C=C(\C)C(=O)[C@@]3(O)C[C@H](C)[C@H](O)[C@@H]3[C@@H]1O)C2(C)C` [Lathyrol] returned a CC50 of 314.6 ± 2.5 µM.

Take `NC(=O)c1ncn([C@@H]2O[C@H](CO)[C@@H](O)[C@H]2O)n1` [Ribavirin, reference compound]: the EC50 was determined as 64.5 ± 1.81 µM in series [1] (setting [10]), 40.9 ± 1.61 µM in series [3] (setting [11]) and 27.7 ± 1.44 µM in [4] (setting [10]). The same compound came in with a CC50 in series [5] of more than 500 µM.

Compound `CC(C)(O)CCC(=O)[C@](C)(O)C1[C@H](O)C[C@@]2(C)[C@@H]3CC=C4[C@@H](C[C@H](O)[C@@H](O)C4(C)C)[C@]3(C)C(=O)C[C@]12C` (some centres unmarked) [Cucurbitacin IIb] had a CC50 in series [6] of 240.5 ± 2.38 µM.

For `C[C@@H]1CC[C@]2(C(=O)O)CC[C@]3(C)C(=CC[C@@H]4[C@@]5(C)CC[C@H](O[C@@H]6OC[C@H](O)[C@H](O)[C@H]6O)C(C)(C)[C@@H]5CC[C@]43C)[C@@H]2[C@]1(C)O` [Ziyuglycoside II], in [6], the CC50 stood at 57.7 ± 1.76 µM.

`CC1=C[C@]23C(=O)[C@@H](C=C(CO)[C@@H](O)[C@]2(O)[C@H]1O)[C@H]1[C@@H](C[C@H]3C)C1(C)C` [Ingenol] displayed a CC50 in series [5] of 417.1 ± 2.62 µM.

Consider `CC(C)[C@]12O[C@H]1[C@@H]1O[C@]13[C@]1(O[C@H]1C[C@H]1C4=C(CC[C@@]13C)C(=O)OC4)[C@@H]2O` [Triptolide], for which the CC50 in [5] was 122 ± 2.09 µM.

With `CC(C)=CCC[C@](C)(O)[C@H]1CC[C@]2(C)[C@@H]1[C@H](O)C[C@@H]1[C@@]3(C)CC[C@H](O[C@@H]4O[C@H](CO)[C@@H](O)[C@H](O)[C@H]4O[C@@H]4O[C@H](CO)[C@@H](O)[C@H](O)[C@H]4O)C(C)(C)[C@@H]3CC[C@]12C` [Ginsenoside Rg3], in series [6], the CC50 came to 269.9 ± 2.43 µM.

As for `C=C[C@@]1(C)CC(=O)[C@]2(O)[C@@]3(C)[C@@H](O)CCC(C)(C)[C@@H]3[C@H](O)[C@H](OC(C)=O)[C@@]2(C)O1` [Forskolin], the CC50 in series [5] came out at 75.9 ± 1.88 µM.

For `C=CC1(C)C=C2CCC3C(C)(C(=O)O)CCCC3(C)C2CC1` (centres unmarked) [Continentalic acid], the “Antiviral activity … (result in words)” value in [1] is reported as “exhibited antiviral activities”. Moreover, the EC50 in series [1] (setting [10]) turned out to be 43.4 ± 1.64 µM; in series [3] (setting [11]) it was 35 ± 1.54 µM; in series [4] (setting [10]), 68.3 ± 1.83 µM. For the same compound, the IC50 in series [2] is 36.9 ± 1.57 µM. The “Inhibition of FMDV 3Dpol (result in words)” value in [2] is on record as “moderate inhibition”. Besides, the “Inhibition of viral load” value in series [4] is “moderate inhibition”. The same compound showed a CC50 in [5] of 88.7 ± 1.82 µM.

In series [6], `C=C1[C@H](OC(=O)c2ccccc2)C[C@H]2[C@@H](/C=C(\C)C(=O)[C@@]3(OC(C)=O)C[C@H](C)[C@H](OC(=O)c4ccccc4)[C@@H]3[C@H]1OC(C)=O)C2(C)C` [Euphorbia factor L2] showed a CC50 of 114 ± 2.06 µM.

In turn, `CC(=O)O[C@@]12CO[C@@H]1C[C@H](O)[C@@]1(C)C(=O)[C@H](O)C3=C(C)[C@@H](O)C[C@@](O)([C@@H](OC(=O)c4ccccc4)[C@H]21)C3(C)C` [10-Deacetylbaccatin III] came in with a CC50 in series [6] of more than 500 µM.

On to `CC(C)c1ccc2c(c1)CC[C@H]1[C@](C)(C(=O)O)CCC[C@]21C` [Dehydroabietic acid], for which the “Antiviral activity … (result in words)” value in [1] is on record as “exhibited antiviral activities”. In addition, the EC50 in series [1] (setting [10]) was 41.7 ± 1.62 µM; in series [3] (setting [11]), 34 ± 1.53 µM; in [4] (setting [10]), 64.5 ± 1.81 µM. Also, in series [2], the IC50 is more than 50 µM. For the same compound, the “Inhibition of viral load” value in series [4] is given as “low to moderate inhibition”. In [5], the CC50 stood at 94.8 ± 1.98 µM. In series [8], the “Activity against HSV-1 (result in words)” value is “did not inhibit”. The “Activity against HSV-2 (result in words)” value in [9] was “moderate activity”.

Turning to `CC(C)c1ccc2c(c1O)CC[C@H]1C3=C(CC[C@]21C)C(=O)OC3` [Triptophenolide], in series [5], the CC50 worked out at 117 ± 2.07 µM.

Take Brusatol: in series [1], the “Antiviral activity … (result in words)” value is recorded as “exhibited antiviral activities” and the EC50 was found to be 0.18 ± 0.27 µM. Further, the EC50 in series [3] (setting [12]) was determined as 0.07 µM. Also, in series [4], the “Concentration range of complete inhibition of FMDV” value was in the range of 0.5 to 1 µM and the EC50 was 0.09 µM.

`COC(=O)C1=CC[C@@]23CC[C@@H]([C@@](C)(/C=C/C=C(\C)C(=O)O)OC2=O)[C@@]3(OC(C)=O)CC1` [Pseudolaric acid] displayed a CC50 in [6] of 25.3 ± 1.4 µM.

Regarding `C[C@H]1O[C@@H](O[C@H]2CC[C@@]3(C)[C@@H](CC[C@]4(C)[C@@H]3C=CC3=C5CC(C)(C)CC[C@]5(CO)[C@H](O)C[C@]34C)[C@]2(C)CO)[C@H](O)[C@@H](O[C@@H]2O[C@H](CO)[C@@H](O)[C@H](O)[C@H]2O)[C@H]1O` [Saikosaponin B2], in series [6], the CC50 was more than 500 µM.

For `C=C1C[C@@]23CC[C@H]4[C@@](C)(CCC[C@@]4(C)C(=O)O)[C@@H]2CC[C@@H]1C3` [Kaurenoic acid], in series [1], the “Antiviral Activity (EC50) CPE (Crystal Violet)” value was “Not inhibit” and the “Antiviral activity … (result in words)” value is recorded as “did not exhibit antiviral activity”. In series [5], this compound gave a CC50 of 266.1 ± 2.42 µM.

On to `C[C@@H]1CC[C@]2(C(=O)O[C@@H]3O[C@H](CO)[C@@H](O)[C@H](O)[C@H]3O)CC[C@]3(C)C(=CC[C@@H]4[C@@]5(C)C[C@@H](O)[C@H](O)C(C)(C)[C@@H]5CC[C@]43C)[C@@H]2[C@]1(C)O` [Rosamultin], for which the CC50 in series [6] came out at 333.2 ± 2.52 µM.

Regarding `CC(C)=CCC[C@](C)(O)[C@H]1CC[C@]2(C)[C@@H]1[C@H](O)C[C@@H]1[C@@]3(C)CC[C@H](O)C(C)(C)[C@@H]3[C@@H](O[C@@H]3O[C@H](CO)[C@@H](O)[C@H](O)[C@H]3O)C[C@]12C` [Ginsenoside Rh1], the CC50 in [5] worked out at 174 ± 2.24 µM.

In [5], `C=C1C(=O)[C@]23[C@H](O)[C@H]1CC[C@H]2[C@@]12CO[C@]3(O)[C@@H](O)[C@@H]1C(C)(C)CC[C@@H]2O` [Oridonin] registered a CC50 of 46.8 ± 1.67 µM.

Take `CC(C)C1=CC2=CC[C@@H]3[C@](C)(CCC[C@@]3(C)C(=O)O)[C@H]2CC1` [Abietic acid]: in [1], the “Antiviral Activity (EC50) CPE (Crystal Violet)” value is reported as “Not inhibit” and the “Antiviral activity … (result in words)” value was “did not exhibit antiviral activity”. In series [5], this compound had a CC50 of 99.2 ± 2 µM. In addition, in [9], the “Activity against HSV-2 (result in words)” value is given as “did not exhibit such activity”.
